In ChEMBL document CHEMBL1137978, “Three new compounds from the plant Lippia alva as inhibitors of chemokine receptor 5 (CCR5)” (Bioorg Med Chem Lett, 2004):

Key:
Type in all cases: functional, cell-based
[1] = molecular target: T1, C-C chemokine receptor type 5 (Homo sapiens, UniProt P51681); assay: Inhibition of MIP-1alpha ligand of chemokine receptor 5 induced calcium signal in U-87-CCR5 cells by calcium mobilization assay
[2] = molecular target: T1, C-C chemokine receptor type 5; assay: Inhibition of MIP-1beta ligand of chemokine receptor 5 induced calcium signal in U-87-CCR5 cells by calcium mobilization assay
[3] = molecular target: T1, C-C chemokine receptor type 5; assay: Inhibition of 50% of RANTES co-receptor of chemokine receptor 5 induced calcium signal in U-87-CCR5 cells by calcium mobilization assay
[4] = molecular target: T1, C-C chemokine receptor type 5; assay: Inhibition of RANTES co-receptor of chemokine receptor 5 induced calcium signal in U-87-CCR5 cells by calcium mobilization assay

T1 sequence (P51681 whole entry): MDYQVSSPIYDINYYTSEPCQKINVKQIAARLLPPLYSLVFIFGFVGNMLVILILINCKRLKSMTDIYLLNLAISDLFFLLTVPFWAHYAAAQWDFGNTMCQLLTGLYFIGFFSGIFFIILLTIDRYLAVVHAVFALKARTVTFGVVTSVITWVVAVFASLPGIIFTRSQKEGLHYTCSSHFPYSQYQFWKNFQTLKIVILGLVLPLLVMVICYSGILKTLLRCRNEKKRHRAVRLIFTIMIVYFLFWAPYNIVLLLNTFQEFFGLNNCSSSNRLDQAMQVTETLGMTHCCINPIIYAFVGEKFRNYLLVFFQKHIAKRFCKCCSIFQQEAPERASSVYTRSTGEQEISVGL

IC50 [1] [µM] | IC50 [2] [µM] | IC50 [3] [µM] | IC50 [4] [µM] | Structure (SMILES)
> 10 | 5.5 | 8.7 | – | COc1ccc(/C=C/C(=O)OC(C)C(=O)[C@H]2C[C@@H]2[C@H](O)[C@H]2CC=CC(=O)O2)cc1 (some centres undefined)
10 | 7.2 | – | > 10 | CC(OC(=O)/C=C/c1ccc(O)cc1)C(=O)[C@H]1C[C@@H]1[C@H](O)[C@H]1CC=CC(=O)O1 (some centres undefined)
8.8 | 6 | – | > 10 | COc1ccc(/C=C\C(=O)OC(C)C(=O)[C@H]2C[C@@H]2[C@H](O)[C@H]2CC=CC(=O)O2)cc1 (some centres undefined)
